One data set has as its target Cytochrome P450 2C9 (Homo sapiens, UniProt P11712). As to the kind of experiment: (§1) All assays are carried out on a robotic system in 96 well plates. The final incubation volume contains TRIS buffer (0.1 M), MgCl2 (5 mM), human liver microsomes (0.1 mg/mL), diclofenac (10 μM) and the test compound at five different concentrations or no compound (high control) in duplicate (e.g., highest concentration 10-50 μM with subsequent serial 1:4 dilutions). Following a short preincubation period, reactions are started with the cofactor (NADPH, 1 mM) and stopped by cooling the incubation down to 8° C. and subsequently by addition of one volume of acetonitrile. An internal standard solution the stable isotope 13C6-hydroxydiclofenac is added after quenching of incubations. Peak area analyte (=metabolite formed) and internal standard is determined by LC-MS/MS. The resulting peak area ratio analyte to internal standard in these incubations is compared to a control activity containing no test compound. Within each of the assay runs, the IC50 of a positive control inhibitor (sulfaphenazole) is determined. In general terms: Liver microsomes are vesicles of endoplasmic reticulum, rich in cytochrome P450 enzymes.

The target in the next data set is T1, Cytochrome P450 2C8 (Homo sapiens, UniProt P10632).
T1 sequence (P10632 whole entry): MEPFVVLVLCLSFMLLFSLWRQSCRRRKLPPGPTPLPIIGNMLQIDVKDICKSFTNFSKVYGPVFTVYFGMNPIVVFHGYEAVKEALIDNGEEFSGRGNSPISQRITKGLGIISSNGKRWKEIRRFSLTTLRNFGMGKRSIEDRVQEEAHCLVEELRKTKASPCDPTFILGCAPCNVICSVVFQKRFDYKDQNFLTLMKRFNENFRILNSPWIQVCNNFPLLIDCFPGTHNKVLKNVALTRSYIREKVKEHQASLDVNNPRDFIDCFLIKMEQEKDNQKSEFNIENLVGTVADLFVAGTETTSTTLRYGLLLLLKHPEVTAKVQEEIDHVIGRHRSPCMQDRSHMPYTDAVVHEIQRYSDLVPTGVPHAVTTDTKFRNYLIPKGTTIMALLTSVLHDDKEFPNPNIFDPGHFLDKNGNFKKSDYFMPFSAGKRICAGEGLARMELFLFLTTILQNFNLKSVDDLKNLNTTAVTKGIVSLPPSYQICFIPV
Described as §1, with “microsomes (0.05” for “microsomes (0.1”, “mg/mL), amodiaquine (1” for “mg/mL), diclofenac (10”, “duplicate (e.g.” for “duplicate (e.g.,”, “standard solution¿the” for “standard solution the”, “isotope d5-desethylamodiaquine” for “isotope 13C6-hydroxydiclofenac”, “inhibitor (Montelukast)” for “inhibitor (sulfaphenazole)”.

The structures appear in SMILES notation.

Chain of Cytochrome P450 2C9 (P11712 whole entry): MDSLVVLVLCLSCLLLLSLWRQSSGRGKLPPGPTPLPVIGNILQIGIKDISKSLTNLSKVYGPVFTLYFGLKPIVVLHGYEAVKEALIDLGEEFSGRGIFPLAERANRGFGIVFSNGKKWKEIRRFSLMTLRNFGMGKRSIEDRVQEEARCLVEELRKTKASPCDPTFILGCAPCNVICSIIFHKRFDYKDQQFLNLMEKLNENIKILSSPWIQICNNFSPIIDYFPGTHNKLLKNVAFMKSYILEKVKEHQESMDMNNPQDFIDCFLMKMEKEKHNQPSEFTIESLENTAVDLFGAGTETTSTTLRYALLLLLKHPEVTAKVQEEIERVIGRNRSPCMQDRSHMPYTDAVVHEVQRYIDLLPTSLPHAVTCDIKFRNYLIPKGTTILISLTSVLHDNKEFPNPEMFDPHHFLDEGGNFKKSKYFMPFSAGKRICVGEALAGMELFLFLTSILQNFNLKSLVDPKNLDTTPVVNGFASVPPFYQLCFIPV

The term IC50 denotes the concentration needed to halve the response being measured. Regarding `Cc1c(C#N)cccc1-c1ccc(F)c2c1CC[C@H]2Nc1ccc([C@H]2C[C@@H]2C(=O)O)nc1`, the values for the IC50 at Cytochrome P450 2C9 and on Cytochrome P450 2C8 were 10 µM and 9 µM, respectively.

Take `Cc1cc(C(=O)NCC(C)(C)O)cc(C)c1-c1ccc(F)c2c1CC[C@H]2Nc1ccc([C@H]2C[C@@H]2C(=O)O)nc1`: the IC50 on Cytochrome P450 2C9 is 31 µM; on Cytochrome P450 2C8 it was 10 µM.

Regarding `Cc1cccc(C)c1-c1ccc(F)c2c1CC[C@H]2Nc1ccc([C@H]2C[C@@H]2C(=O)O)nc1`, the figures for the concentration for half-maximal inhibition (IC50) on Cytochrome P450 2C9 and at Cytochrome P450 2C8 were 7 µM and 5 µM, respectively.
